The subject of data set [1] is HIV. The note with it: cited from earlier work.
For the next data set, the system named is macrophages in culture. Kind of data set: Proliferation of cultured macrophages (3H-thymidine incorporation). The following applies: for inhibition of proliferation of macrophages stimulated with the combination IL-3/GM-CSF / inhibition of proliferation of macrophages stimulated with IL-3: 1 μg/ml; for inhibition of proliferation of macrophages stimulated with the combination IL-3/GM-CSF: hr IL-3 and hr GM-CSF stimulated; for inhibition of proliferation of macrophages stimulated with IL-3: hr IL-3 stimulated, compound added a day before 3H-thymidine; for inhibition of spontaneous proliferation: without stimulation. In kind it is cell-based, human. On the procedure:
For that, monocytes collected from a donor are cultured for 5 days either a) without stimulation (so as to evaluate their spontaneous proliferation level) or b) in the presence of human recombinant interleukin-3 (hr IL-3) or c) in the presence of both hr IL-3 and hr GM-CSF human recombinant granulocyte-macrophage colony stimulating factor. These two treatments make it possible to obtain a high level of proliferation. The compounds of the invention are added to the culture medium a day before the addition of tritiated thymidine (^3H-thymidine). The dividing cells incorporate this thymidine. The cells (which have differentiated into macrophages during the duration of the culture) are recovered and washed, and the proliferation level is evaluated by measuring, in a beta counter, the quantity of ^3H incorporated according to conventional methods as described in Blood, Vol. 76, pages 1490-1493, 1990.

The subject of the next data set is HIV (HTLV III Ba-L). Kind of data set: HIV replication in primary cultures of human monocytes (viral protein P24 in supernatants, day 7). The data set is classed as cell-based. Here is the method:
Some cultures were treated with different concentrations of the compounds either 1 day before, or the same day, or 1 day after inoculation with HIV. The replication of the virus was evaluated on day 7 by measurement of the quantity of viral protein P24 in the supernatants as described in Blood, Vol. 76, page 1490-1493, 1990.

Data set [2] in a line: Clinical trials: tolerance in healthy volunteers and cancer subjects. In kind it is in vivo, man.
Data set [3] concerns HIV. The following applies: in vitro, 1000 μg/ml; cited from earlier work.
Another data set has as its system guinea pig macrophages. The note with it: cited from earlier work.

Consider `CCCCCCCCCCCCCCCC(=O)OC[C@H](COP(=O)(O)OCCNC(=O)[C@H](C)NC(=O)CC[C@@H](NC(=O)[C@H](C)NC(=O)[C@@H](C)O[C@@H]([C@H](O)[C@H](O)CO)[C@H](C=O)NC(C)=O)C(N)=O)OC(=O)CCCCCCCCCCCCCCC` [MTP-PE], for which the “activity on viral replication” value in the data set on HIV [1] (compound added a day before or 4 days after) is “minimal”. For the same molecule, in the data set with HIV [1] (free form or incorporated into liposomes), the “total suppression of viral replication” value is recorded as “not capable”. The “reduction in viral replication” value in the data set on HIV [1] (free form, added repeatedly before and after HIV infection) is “only a partial reduction in viral replication”.

In the case of `CCCCOC(=O)[C@@H](CCC(N)=O)NC(=O)[C@H](C)NC(=O)[C@@H](C)O[C@H]1[C@H](O)[C@@H](CO)OC(O)[C@@H]1NC(C)=O` (stereo partly drawn) [Murabutide, Nac-Mur-L-Ala-DGln OnC4H9], in the data set on macrophages in culture, the “inhibition of proliferation of macrophages stimulated with the combination IL-3/GM-CSF” value is given as “inhibiting the proliferation” and the “inhibition of proliferation of macrophages stimulated with IL-3” value is “inhibiting the proliferation”. Further, the “inhibition of spontaneous proliferation” value with macrophages in culture (10 μg/ml) was “inhibition of spontaneous proliferation was observed”. The “inhibition of viral replication” value with HIV (HTLV III Ba-L) (10 to 50 μg/ml, treatment on day -1, day 0 or day +1 relative to infection, P24 on day 7) was “completely inhibits viral replication”. In data set [2], the “side effects in man” value is listed as “free of side effects” and the tolerance in man result was “very good tolerance”.

As to `COC(=O)[C@@H](CCC(N)=O)NC(=O)[C@H](C)NC(=O)[C@@H](C)O[C@H]1[C@H](O)[C@@H](CO)OC(O)[C@@H]1NC(C)=O` (stereo partly drawn) [Murametide, Nac-Mur-L-Ala-DGln OMe], the “inhibition of proliferation of macrophages stimulated with the combination IL-3/GM-CSF” value in the data set with macrophages in culture is recorded as “inhibiting the proliferation”. In the data set with macrophages in culture, the “inhibition of proliferation of macrophages stimulated with IL-3” value is recorded as “inhibiting the proliferation”. The “inhibition of spontaneous proliferation” value with macrophages in culture (10 μg/ml) and with macrophages in culture (50 μg/ml) was “inhibition of spontaneous proliferation was observed” in each case. The “suppression of viral replication” value was 100% with HIV (HTLV III Ba-L) (50 μg/ml, regardless of the time of treatment) and “highly significant suppression of viral replication” in the data set on HIV (HTLV III Ba-L) (different concentrations, treatment 1 day before, same day or 1 day after inoculation). Further, the “side effects in man” value in data set [2] is reported as “free of side effects”. Besides, the tolerance in man result in data set [2] is on record as “very good tolerance”.

With “N-acetyl-muramyl-L-alanyl-D-Isoglutamine [MDP]”, the “inhibition of the replication of HIV” value in the data set on HIV [3] is recorded as “partially inhibiting the replication of HIV”. Further, the “inhibition of the proliferation of guinea pig macrophages” value in the data set with guinea pig macrophages is “capable of inhibiting the proliferation”.

The values above are taken from patent US20020010132A1, “COMPOSITIONS OF MURAMYL PEPTIDES INHIBITING THE REPLICATION OF HIV” (VACSYN S.A., priority 1994, published 2002).
